The structures appear in SMILES notation. Read-outs that look alike come from different tables or passages of the source.

The source of these data is patent US20230295157A1, “3-(1H-IMIDAZOL-2-YL)-2,3,8,8A-TETRAHYDROINDOLIZIN-5(1H)-ONE DERIVATIVES USEFUL AS FACTOR XIA INHIBITORS” (JANSSEN PHARMACEUTICA NV, priority 2020, published 2023).

In assay [1] the target is human plasma kallikrein (Homo sapiens (Human), UniProt P03952). The assay can be described thus: Kallikrein inhibition assay (FLINT) utilizing a quenched AMC peptide substrate. It is filed as biochemical. As to conditions: 30 min preincubation, kinetic reads over 30 min, Z-Gly-Pro-Arg-AMC substrate 50 μM; read-out: Kallikrein Kin Inh IC50. On the procedure: Biological Example 2: Kallikrein Inhibition Assay Utilizing a Quenched AMC Peptide Substrate A fluorescence intensity (FLINT) based assay was used to monitor inhibition of human plasma kallikrein.
The Kallikrein FLINT assay was used with the following Z-Gly-Pro-Arg-AMC assay buffer: 50 mM Tris, pH 7.5, 100 mM NaCl, 5 mM CaCl2), 0.1 mg/mL BSA, 0.03% CHAPS. Assay buffer was prepared by mixing all ingredients fresh. 2×Z-Gly-Pro-Arg-AMC peptide substrate was prepared by diluting 10 mM stock into 1×assay buffer for a 100 μM working concentration (50 μM final concentration). The 2×kallikrein stock solution was prepared by diluting 14.76 μM stock in 1×assay buffer for a 4 nM working stock solution (2 nM final concentration).
Test compound(s) were run in an 11-point, 3-fold serial dilution with a final top compound concentration of 1 μM. Final DMSO in assay was 2%. Plasma kallikrein was pre-incubated for 30-minute with compound and then 50 μM substrate was added to initiate the reaction. The assay was run with kinetic (KIN) reads at 5 min intervals over 30 minutes. […] More specifically, the assay was run as follows: • 100 nL of 0.1 mM test compound was dispensed into black 384-well non-binding Greiner BioOne 784900 plate for 1 μM final concentration; • 5 μL of 1×assay buffer was dispensed to columns 24 (low control) and 5 μL 2×human kallikrein enzyme solution was dispensed to columns 1-23 (column 23 high control); • the plate was centrifuged with a “cover” plate at 500 rpm for 1 min • the plate was pre-incubated for 30 minutes at room temperature with plate covered; • 5 μL of 2×Z-Gly-Pro-Arg-AMC peptide substrate was dispensed into the entire plate, columns 1-24; • the plate was centrifuged with a “cover” plate at 500 rpm for 1 min; • the plate was read monitoring fluorescence intensity on the BMG PHERAStar at room temperature, using fluorescence module 340 nm/440 nm.
(§1) Percent inhibition (IC50) curves were generated per compound tested, and data was analyzed using a 4-parameter logistic fit using GeneData Screener. The relative fluorescence unit (RFU) values were normalized to percent inhibition using the following equation:
% inhibition=((HC-LC)−(compound-LC)\(HC-LC))*100 where LC—low control=mean signal of human kallikrein enzyme or 100% inhibition of human kallikrein enzyme; HC—high control=mean signal of Factor XIa+Z-Gly-Pro-Arg-AMC peptide substrate with DMSO only.
(§2) An 11-point dose response curve for the test compound(s) was generated using GENDATA to determine IC50 value based on the following equation:
Y=Bottom+(Top-Bottom)/(1+10^((logIC50−X)*HillSlope)) where Y is the % inhibition in the presence of X inhibitor concentration, Top=high control=mean signal of human kallikrein enzyme+Z-Gly-Pro-Arg-AMC peptide substrate with DMSO only; Bottom=low control−mean signal of no human kallikrein enzyme or 100% inhibition of human kallikrein enzyme; HillSlope—Hill coefficient; and IC50=concentration of compound with 50% inhibition in relation to top/high control.

Assay [2] addresses Factor XIa (Homo sapiens (Human), UniProt P03951). As to the kind of experiment: Factor XIa inhibition assay (FLINT) utilizing a fluorophore-quencher pair peptide substrate. The class given is biochemical. The settings on record: 30 min preincubation, kinetic reads over 30 min, read-out: FXIa Kin Inh IC50.
Text: Biological Example 1: Factor XIa Inhibition Assay Utilizing a Fluorophore-Quencher Pair Peptide Substrate
A fluorescence intensity (FLINT) based assay was used to monitor inhibition of Factor XIa. The peptide substrate, 5Fam-[…]-K5Tamra (purchased from New England Peptide) was chosen based on the FXI sequence. Conversion of zymogen […]. The custom peptide used in this assay was based on the Arg146 cleavage site of FXI. The peptide substrate was designed with a fluorophore-quencher pair, where the fluorescence is quenched until FXIa cleaves the 8-mer peptide after the Arg residue.
The Factor XIa FLINT assay was used with the following 5Fam-[…]-K5Tamra assay buffer: 50 mM Tris, pH 7.5, 100 mM NaCl, 5 mM CaCl2), 0.1 mg/mL BSA, 0.03% CHAPS. Assay buffer was prepared by mixing all ingredients fresh. 5Fam-[…]-K5Tamra peptide substrate was first prepared at 10 mM in 100% DMSO, then diluted to 3 mM in 100% DMSO. Assay buffer was then added directly to the 3 mM stock of substrate to prepare the 30 μM 2× working concentration (15 μM final concentration). The 2×Factor XIa stock solution was prepared by diluting 6.562 μM stock in 1×assay buffer for a 200 μM working stock solution (100 μM final concentration).
Test compound(s) were run in an 11-point, 3-fold serial dilution with a final top compound concentration of 100 nM. Final DMSO in assay was 2%. FXIa was preincubated with compound for 30-minutes and then substrate was added to initiate the reaction. The assay was run with kinetic (KIN) reads at 5 min intervals over 30 minutes. The time course was linear using 100 μM FXIa greater than 30 minutes. More specifically, the assay was run as follows: • 100 nL of 0.01 mM test compound was dispensed into black 384 well non-binding Greiner BioOne 784900 plate for 0.1 μM final concentration; • 5 μL of 1×assay buffer was dispensed to column 24 (low control) and 5 μL 2×Factor XIa solution was dispensed to columns 1-23 (column 23 high control); • the plate was centrifuged with a “cover” plate at 500 rpm for 1 min • the plate was pre-incubated for 30 minutes at room temperature with plate covered; • 5 μL of 2×5Fam-[…]-K5Tamra peptide substrate was dispensed into the entire plate, columns 1-24; • the plate was centrifuged with a “cover” plate at 500 rpm for 1 min; • the plate was read monitoring fluorescence intensity on the BMG PHERAStar at room temperature, using fluorescence module 485 nm/520 nm.
as §1
% inhibition=((HC-LC)−(compound−LC)/(HC-LC))*100
where LC—low control=mean signal of no Factor XIa or 100% inhibition of Factor XIa; HC—high control=mean signal of Factor XIa+5Fam-[…]-K5Tamra peptide substrate with DMSO only.
as §2
Y=Bottom+(Top-Bottom)/(1+10^((logIC50-X)*HillSlope))
where Y is the % inhibition in the presence of X inhibitor concentration, Top=high control=mean signal of Factor XIa+5Fam-[…] K5Tamra peptide substrate with DMSO only; Bottom=low control−mean signal of no Factor XIa or 100% inhibition of Factor XIa; HillSlope—Hill coefficient; and IC50=concentration of compound with 50% inhibition in relation to top/high control.
Representative compounds of the present invention were tested according to the procedure described in Biological Example 1 and Biological Example 2 above, with results as listed in Table 3, below.

[3] abbreviates: 5Fam-[…]-K5Tamra substrate 15 μM.

Sequence of human plasma kallikrein (P03952 391-638): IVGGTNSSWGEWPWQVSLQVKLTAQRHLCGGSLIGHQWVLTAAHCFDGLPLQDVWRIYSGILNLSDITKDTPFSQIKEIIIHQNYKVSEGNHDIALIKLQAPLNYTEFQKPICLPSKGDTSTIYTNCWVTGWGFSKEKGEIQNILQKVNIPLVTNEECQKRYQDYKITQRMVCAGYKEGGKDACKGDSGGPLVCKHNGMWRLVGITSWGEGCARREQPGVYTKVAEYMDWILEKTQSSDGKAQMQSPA
Sequence of human plasma kallikrein (P03952 20-390 partner): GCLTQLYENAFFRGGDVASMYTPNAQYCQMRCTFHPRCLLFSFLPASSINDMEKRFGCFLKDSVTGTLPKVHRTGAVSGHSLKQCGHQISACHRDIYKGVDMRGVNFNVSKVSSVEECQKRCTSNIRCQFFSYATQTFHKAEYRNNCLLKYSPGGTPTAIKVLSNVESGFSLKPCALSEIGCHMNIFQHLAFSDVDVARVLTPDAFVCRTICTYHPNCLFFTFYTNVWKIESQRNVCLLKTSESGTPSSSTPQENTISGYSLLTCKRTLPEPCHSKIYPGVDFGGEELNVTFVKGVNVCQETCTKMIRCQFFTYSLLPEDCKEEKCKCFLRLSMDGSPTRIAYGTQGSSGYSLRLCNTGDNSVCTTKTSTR
Sequence of Factor XIa (P03951 388-625): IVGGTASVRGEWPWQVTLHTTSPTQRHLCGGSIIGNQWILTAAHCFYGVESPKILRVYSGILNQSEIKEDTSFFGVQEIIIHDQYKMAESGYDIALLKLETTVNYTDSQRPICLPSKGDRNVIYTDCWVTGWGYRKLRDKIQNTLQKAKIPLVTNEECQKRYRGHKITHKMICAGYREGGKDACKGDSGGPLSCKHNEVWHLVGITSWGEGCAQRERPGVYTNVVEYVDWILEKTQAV
Sequence of Factor XIa (P03951 19-387 partner): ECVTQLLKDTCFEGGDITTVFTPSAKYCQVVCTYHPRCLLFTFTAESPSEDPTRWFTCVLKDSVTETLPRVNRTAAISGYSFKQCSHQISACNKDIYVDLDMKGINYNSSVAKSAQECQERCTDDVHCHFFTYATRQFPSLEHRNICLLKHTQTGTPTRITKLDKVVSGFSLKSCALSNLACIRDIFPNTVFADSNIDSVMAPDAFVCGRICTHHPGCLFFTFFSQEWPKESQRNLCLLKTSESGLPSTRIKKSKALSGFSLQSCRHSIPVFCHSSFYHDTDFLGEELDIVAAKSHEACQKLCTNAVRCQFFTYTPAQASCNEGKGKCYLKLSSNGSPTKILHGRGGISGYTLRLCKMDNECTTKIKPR

What is called IC50 is the point on the concentration scale where inhibition reaches its midpoint. Take `O=C1C=C(c2c(-n3cnnn3)ccc(Cl)c2F)CC2CC[C@H](c3nc(F)c(-c4ccnc(N[C@H]5CCOC5)c4F)[nH]3)N12` (relative stereo) [Example 77, (3R*)-7-(3-chloro-2-fluoro-6-(1H-tetrazol-1-yl)phenyl)-3-(4-fluoro-5-(3-fluoro-2-(((S)-tetrahydrofuran-3-yl)amino)pyridin-4-yl)-1H-imidazol-2-yl)-2,3,8,8a-tetrahydroindolizin-5(1H)-one]: the figures for the IC50 in assay [1] and in assay [2] (setting [3]) were 5 nM and 1.3 nM, respectively.
On to `O=C1C=C(c2c(-n3cnnn3)ccc(Cl)c2F)C[C@H]2CC[C@H](c3ncc(-c4ccnc(-n5cnnc5)c4F)[nH]3)N12` (relative stereo) [Example 78, (3R*,8aR)-7-(3-chloro-2-fluoro-6-(1H-tetrazol-1-yl)phenyl)-3-(5-(3-fluoro-2-(4H-1,2,4-triazol-4-yl)pyridin-4-yl)-1H-imidazol-2-yl)-2,3,8,8a-tetrahydroindolizin-5(1H)-one], for which the IC50 came out at 136 nM in assay [1] and 40.9 nM in assay [2] (setting [3]).
The matching figures for `C[C@H](Oc1nccc(-c2cnc([C@@H]3CC[C@H]4CC(c5c(-n6cnnn6)ccc(Cl)c5F)=CC(=O)N43)[nH]2)c1F)c1nnco1` (relative stereo) [Example 127, (3S*,8aS*)-3-(5-(2-((S*)-1-(1,3,4-oxadiazol-2-yl)ethoxy)-3-fluoropyridin-4-yl)-1H-imidazol-2-yl)-7-(3-chloro-2-fluoro-6-(1H-tetrazol-1-yl)phenyl)-2,3,8,8a-tetrahydroindolizin-5(1H)-one]: 12.9 nM and 10.9 nM.
With `C[C@H](Oc1nccc(-c2cnc([C@@H]3CC[C@@H]4CC(c5c(-n6cnnn6)ccc(Cl)c5F)=CC(=O)N43)[nH]2)c1F)c1nnco1` (relative stereo) [Example 128, (3S*,8aR*)-3-(5-(2-((S*)-1-(1,3,4-oxadiazol-2-yl)ethoxy)-3-fluoropyridin-4-yl)-1H-imidazol-2-yl)-7-(3-chloro-2-fluoro-6-(1H-tetrazol-1-yl)phenyl)-2,3,8,8a-tetrahydroindolizin-5(1H)-one], the 50% inhibitory concentration (IC50) came out at 12.8 nM in assay [1] and 6.1 nM in assay [2] (setting [3]).
As to `[2H]c1c(NC)nc(F)c(-c2cnc([C@H]3CC[C@@H]4CC(c5c(-n6cnnn6)ccc(Cl)c5F)=CC(=O)N43)[nH]2)c1[2H]` (relative stereo) [Example 133, (3R*,8aR)-7-(3-chloro-2-fluoro-6-(1H-tetrazol-1-yl)phenyl)-3-(5-(2-fluoro-6-(methylamino)pyridin-3-yl-4,5-d2)-1H-imidazol-2-yl)-2,3,8,8a-tetrahydroindolizin-5(1H)-one], the figures for the IC50 in assay [1] and in assay [2] (setting [3]) were 7.5 nM and 0.7 nM, respectively.
Regarding `O=C1C=C(c2c(-n3cnnn3)ccc(Cl)c2F)C[C@H]2CC[C@H](c3ncc(-c4c[nH]c5ccccc45)[nH]3)N12` (relative stereo) [Example 137, (3R*,8aR)-3-(5-(1H-indol-3-yl)-1H-imidazol-2-yl)-7-(3-chloro-2-fluoro-6-(1H-tetrazol-1-yl)phenyl)-2,3,8,8a-tetrahydroindolizin-5(1H)-one], the figures for the IC50 in assay [1] and in assay [2] (setting [3]) were 7.7 nM and 4.6 nM, respectively.
For `O=C1C=C(c2c(-n3cnnn3)ccc(Cl)c2F)C[C@H]2CC[C@@H](c3ncc(-c4ccnc(C5(O)CC5)c4Cl)[nH]3)N12` (relative stereo) [Example 155, (3*S,8aR)-3-(5-(3-chloro-2-(1-hydroxycyclopropyl)pyridin-4-yl)-1H-imidazol-2-yl)-7-(3-chloro-2-fluoro-6-(1H-tetrazol-1-yl)phenyl)-2,3,8,8a-tetrahydroindolizin-5(1H)-one] the same measures were 52.4 nM and 4.9 nM.
Take `O=C1C=C(c2c(-n3cnnn3)ccc(Cl)c2F)C[C@H]2CC[C@H](c3ncc(-c4ccnc(OC[C@@H]5COCCO5)c4F)[nH]3)N12` (relative stereo) [Example 156, (3*R,8aR)-3-(5-(2-(((S)-1,4-dioxan-2-yl)methoxy)-3-fluoropyridin-4-yl)-1H-imidazol-2-yl)-7-(3-chloro-2-fluoro-6-(1H-tetrazol-1-yl)phenyl)-2,3,8,8a-tetrahydroindolizin-5(1H)-one]: the figures for the half-inhibitory concentration (IC50) in assay [1] and in assay [2] (setting [3]) were 19.1 nM and 13.8 nM, respectively.
The matching figures for `O=C1C=C(c2c(-n3cnnn3)ccc(Cl)c2F)C[C@H]2CC[C@@H](c3ncc(-c4ccnc(C(F)(F)CO)c4F)[nH]3)N12` (relative stereo) [Example 160, (3*S,8aR)-7-(3-chloro-2-fluoro-6-(1H-tetrazol-1-yl)phenyl)-3-(5-(2-(1,1-difluoro-2-hydroxyethyl)-3-fluoropyridin-4-yl)-1H-imidazol-2-yl)-2,3,8,8a-tetrahydroindolizin-5(1H)-one]: 27.8 nM and 8.4 nM.
With `C[C@H](C#N)c1nccc(-c2cnc([C@@H]3CCC4CC(c5c(-n6cnnn6)ccc(Cl)c5F)=CC(=O)N43)[nH]2)c1F` (relative stereo) [Example 163, (2*S)-2-(4-(2-((3S)-7-(3-chloro-2-fluoro-6-(1H-tetrazol-1-yl)phenyl)-5-oxo-1,2,3,5,8,8a-hexahydroindolizin-3-yl)-1H-imidazol-5-yl)-3-fluoropyridin-2-yl)propanenitrile], the IC50 in assay [1] stood at 28.8 nM; in assay [2] (5Fam-KLTRAETV-K5Tamra substrate 15 μM) it was 7.4 nM.
